The compounds below were run against Integrin alpha-V/beta-3 (Homo sapiens, UniProt P05106+P06756) (assay: Displacement of [125I]echistatin from alphaVbeta3 receptor in human EA-Hy926 cells by gamma-counting).
Integrin alpha-V/beta-3, sequence (P05106 27-788 limits assumed): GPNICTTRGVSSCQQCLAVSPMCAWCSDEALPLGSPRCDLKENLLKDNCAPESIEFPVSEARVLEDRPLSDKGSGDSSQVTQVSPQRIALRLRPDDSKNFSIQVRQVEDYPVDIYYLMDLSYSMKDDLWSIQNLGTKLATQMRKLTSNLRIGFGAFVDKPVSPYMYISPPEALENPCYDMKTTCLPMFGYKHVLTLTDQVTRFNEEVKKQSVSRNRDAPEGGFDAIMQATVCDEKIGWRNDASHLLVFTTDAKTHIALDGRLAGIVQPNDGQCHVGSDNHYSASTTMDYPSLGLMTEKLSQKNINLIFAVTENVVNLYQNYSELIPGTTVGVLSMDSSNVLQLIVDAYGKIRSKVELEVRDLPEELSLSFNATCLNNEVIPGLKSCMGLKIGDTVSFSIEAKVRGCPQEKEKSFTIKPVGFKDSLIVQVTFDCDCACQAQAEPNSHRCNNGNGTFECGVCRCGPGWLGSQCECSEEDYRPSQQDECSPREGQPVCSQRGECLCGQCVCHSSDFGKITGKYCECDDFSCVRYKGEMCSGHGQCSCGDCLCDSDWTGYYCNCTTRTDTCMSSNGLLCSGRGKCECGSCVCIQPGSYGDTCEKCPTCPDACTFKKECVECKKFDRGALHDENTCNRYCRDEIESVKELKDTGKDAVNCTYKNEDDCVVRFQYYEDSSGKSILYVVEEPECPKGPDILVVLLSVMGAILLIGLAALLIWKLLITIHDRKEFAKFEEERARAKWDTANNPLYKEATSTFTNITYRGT
Integrin alpha-V/beta-3, sequence (P06756 31-889 limits assumed): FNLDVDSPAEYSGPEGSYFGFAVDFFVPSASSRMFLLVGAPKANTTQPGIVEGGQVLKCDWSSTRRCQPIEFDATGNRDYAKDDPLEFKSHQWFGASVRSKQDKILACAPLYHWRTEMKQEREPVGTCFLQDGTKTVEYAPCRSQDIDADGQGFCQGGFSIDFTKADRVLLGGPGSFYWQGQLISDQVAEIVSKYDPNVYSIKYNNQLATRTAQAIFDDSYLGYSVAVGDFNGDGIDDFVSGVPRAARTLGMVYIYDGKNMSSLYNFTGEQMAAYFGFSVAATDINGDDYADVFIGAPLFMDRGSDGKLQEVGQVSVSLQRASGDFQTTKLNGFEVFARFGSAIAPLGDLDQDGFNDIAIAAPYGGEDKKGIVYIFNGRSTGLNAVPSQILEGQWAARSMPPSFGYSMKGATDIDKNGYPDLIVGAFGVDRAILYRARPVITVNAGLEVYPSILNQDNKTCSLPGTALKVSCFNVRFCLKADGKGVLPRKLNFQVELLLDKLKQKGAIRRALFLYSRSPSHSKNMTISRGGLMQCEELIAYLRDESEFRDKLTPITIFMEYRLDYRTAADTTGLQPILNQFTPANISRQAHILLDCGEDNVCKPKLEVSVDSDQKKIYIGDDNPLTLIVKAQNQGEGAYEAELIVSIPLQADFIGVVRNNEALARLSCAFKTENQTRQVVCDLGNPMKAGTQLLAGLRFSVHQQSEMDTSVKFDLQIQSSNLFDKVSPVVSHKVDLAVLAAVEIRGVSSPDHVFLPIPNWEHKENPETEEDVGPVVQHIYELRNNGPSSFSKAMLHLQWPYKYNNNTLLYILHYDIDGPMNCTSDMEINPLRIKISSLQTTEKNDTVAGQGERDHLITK
Integrin alpha-V/beta-3, sequence (P06756 891-1048 limits assumed): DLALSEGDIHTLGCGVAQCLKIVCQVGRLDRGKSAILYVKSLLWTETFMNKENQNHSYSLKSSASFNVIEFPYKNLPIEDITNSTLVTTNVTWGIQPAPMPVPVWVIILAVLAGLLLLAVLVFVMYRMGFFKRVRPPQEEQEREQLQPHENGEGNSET
Format: cell-based
`Cc1cc(C)c(S(=O)(=O)N[C@H](CNC(=O)c2cn(CCCNC(=O)c3ccc(F)nc3)c3cc(CNc4ncc[nH]4)ccc3c2=O)C(=O)O)c(C)c1` was tested, and the Ki was 19.1 nM.
Compound `NC(=O)COCC(=O)NCCOCCOCCOCCNC(=O)[C@@H]1CSCC(=O)N[C@@H](CCCCNC(=O)COCC(=O)NCCOCCOCCOCCOCCOCCNC(=O)CONC(=O)c2ccc(F)nc2)C(=O)N[C@H]2CSSC[C@H](NC(=O)[C@H](CC(=O)O)NC(=O)CNC(=O)[C@H](CCCN=C(N)N)NC2=O)C(=O)N[C@@H](Cc2ccccc2)C(=O)C1` has a Ki of 2 nM.
`Cc1cc(C)c(S(=O)(=O)N[C@H](CNC(=O)c2cn(CCCNC(=O)COCC(=O)NCCOCCOCCOCCOCCOCCOCCOCCOCCOCCOCCOCCNC(=O)c3ccc(F)nc3)c3cc(CNc4ncc[nH]4)ccc3c2=O)C(=O)O)c(C)c1` gave a Ki of 14.8 nM.

From ChEMBL document CHEMBL1156868, “One step radiosynthesis of 6-[(18)F]fluoronicotinic acid 2,3,5,6-tetrafluorophenyl ester ([(18)F]F-Py-TFP): a new prosthetic group for efficient labeling of biomolecules with fluorine-18” (J Med Chem, 2010)
